Key:
HCT116 cells = assay: Whole cell cytotoxicity assay: Sulforhodamine B; format: cell-based; conditions: Homo sapiens, HCT-116; 100 μM compound; 48 hours incubation with drug; Sulforhodamine B staining; read-out: % Inhibition of HCT116 cell growth @ 100 μM
Protocol: [The source words this procedure for another cell line and reports this cell line under the same test.] The following procedure can be found on the Developmental Therapeutics Program NCl/NIH web site at http://dtp.nci.nih.gov/brancehes/btb/ivclsp.html. • 1. Human tumor cell lines of HT29, A549 and MCF7 are grown in DMEM containing 10% fetal bovine serum and 2 mM L-glutamine. Cells are plated in a 96 well plate at a density of 5000 cells per well in 100 μL of growth medium and incubated at 37° C., 5% CO2, for 24 hours prior to the addition of experimental compounds. • 2. Experimental drugs are solubilized in DMSO for a final concentration of 20 mM immediately prior to use. Drugs are further diluted in growth media for a total of nine drug concentrations and a growth control. At the 24 hour time point, one plate of cells is fixed in situ with TCA as a measurement of the cell population at time zero, or the time of drug addition. • 3. The plates are further incubated with drug for an additional 48 hours. • 4. The cells are fixed in situ by gently aspirating off the culture media and then adding 50 μL of ice cold 10% TCA per well and incubated at 4° C. for 60 minutes. The plates are washed with tap water five times and allowed to air dry for 5 minute. • 5. 50 μL of a 0.4% (w/v) Sulforhodamine B solution in 1% (v/v) acetic acid is added per well and incubated for 30 minutes at room temperature. • 6. Following staining, plates are washed five times with 1% acetic acid to remove any unbound dye and then allowed to air dry for 5 minutes. • 7. Stain is solubilized with 100 μL of 10 mM Tris pH 10.5 per well and placed on an orbital rotator for 5 minutes. • 8. Absorbance is read at 570 nm.

HDAC = assay: In vitro fluorescent histone deacetylase assay (Biomol HDAC fluorescent activity kit, HeLa cell nuclear extract); format: biochemical; conditions: 100 μM compound; HeLa cell nuclear extract as source of HDAC activity; 50 μM substrate, 10 min at room temperature
Protocol: Histone deacetylase (HDAC) activity assays were performed using the HDAC fluorescent activity assay/drug discovery kit (Biomol Research Laboratories, Plymouth Meeting, Pa.) essentially according to the manufacturer's instructions. The included HeLa cell nuclear extract, which contains a mosaic of HDAC enzymes and other nuclear factors, was used as the source of HDAC activity. The final substrate concentration in the assay mixture was 50 μM. The reaction was allowed to proceed for 10 min at room temperature before stopping the reaction. Test compounds were prepared as 20 mM stock solutions in DMSO (Molecular Biology grade, Sigma-Aldrich Co., St. Louis, Mo.) and stored at −70° C. Serial dilutions of test compounds were prepared in assay buffer immediately prior to testing. DMSO was determined in a separate trial to have no significant effect on the activity of this assay at concentrations up to 5%; the final DMSO concentration in the wells was no more than 2% and therefore DMSO effects were safely neglected. Assays were performed in white polystyrene 96-well half-area assay plates (Corning, Corning, N.Y.) and measured on a Wallace 1420 fluorescent plate reader (Wallac Oy, Turku, Finland) with an excitation wavelength of 355 nm, an emission wavelength of 460 nm, and a 1 sec signal averaging time.

Compound | inhibition at 100 µM (HCT116 cells) | % Inhibition of HDAC @ 100 μM (HDAC)
O=C(NO)c1cnc(N2CCc3[nH]c4ccc(-c5cncnc5)cc4c3C2)nc1 [Example 51, N-hydroxy-2-{8-(pyrimidin-5-yl)-1,3,4,5-tetrahydro-2H-pyrido[4,3-b]indol-2-yl}pyrimidine-5-carboxamide] | 98.7% | 99.8%
O=C(NO)c1cnc(N2CCc3[nH]c4ccc(-c5ccoc5)cc4c3C2)nc1 [Example 52, N-hydroxy-2-{8-[fur-3-yl]-1,3,4,5-tetrahydro-2H-pyrido[4,3-b]indol-2-yl}pyrimidine-5-carboxamide] | 98.9% | 99.7%
O=C(NO)c1cnc(N2CCc3[nH]c4ccc(-c5ccc[nH]5)cc4c3C2)nc1 [Example 53, N-hydroxy-2-{8-[1H-pyrrol-2-yl]-1,3,4,5-tetrahydro-2H-pyrido[4,3-b]indol-2-yl}pyrimidine-5-carboxamide] | 96.4% | 100%
Cc1ccc2[nH]c3c(c2c1Cl)CN(c1ncc(C(=O)NO)cn1)CC3 [Example 54, N-hydroxy-2-(9-chloro-8-methyl-1,3,4,5-tetrahydro-2H-pyrido[4,3-b]indol-2-yl)pyrimidine-5-carboxamide] | 98.9% | 99.5%
O=C(NO)c1cnc(N2CCc3[nH]c4ccc(C(F)(F)F)cc4c3C2)nc1 [Example 55, N-hydroxy-2-(8-trifluoromethyl-1,3,4,5-tetrahydro-2H-pyrido[4,3-b]indol-2-yl)pyrimidine-5-carboxamide] | 99.1% | 99.3%
Cc1cc2[nH]c3c(c2cc1C)CN(c1ncc(C(=O)NO)cn1)CC3 [Example 56, N-hydroxy-2-(7,8-dimethyl-1,3,4,5-tetrahydro-2H-pyrido[4,3-b]indol-2-yl)pyrimidine-5-carboxamide] | 99% | 99.8%
COc1ccc2[nH]c3c(c2c1)CN(c1ncc(C(=O)NO)cn1)CC3 [Example 57, N-hydroxy-2-(8-methoxy-1,3,4,5-tetrahydro-2H-pyrido[4,3-b]indol-2-yl)pyrimidine-5-carboxamide] | 98.2% | 99.9%
O=C(NO)c1cnc(N2CCc3c(n(CCO)c4ccccc34)C2)nc1 [Example 58, N-hydroxy-2-[9-(2-hydroxyethyl)-1,3,4,9-tetrahydro-2H-b-carbolin-2-yl]pyrimidine-5-carboxamide] | 96.3% | 97.7%
CN1CCCC(n2c3c(c4ccccc42)CCN(c2ncc(C(=O)NO)cn2)C3)C1 (centres unmarked) [Example 59, N-hydroxy-2-[9-(1-methylpiperidin-3-yl)-1,3,4,9-tetrahydro-2H-b-carbolin-2-yl]pyrimidine-5-carboxamide] | 97.5% | 97.3%
O=C(NO)c1cnc(N2CCc3[nH]c4ccc(-c5cccs5)cc4c3C2)nc1 [Example 60, N-hydroxy-2-{8-[thien-2-yl]-1,3,4,5-tetrahydro-2H-pyrido[4,3-b]indol-2-yl}pyrimidine-5-carboxamide] | 99% | 100%
Cc1cccc2c3c([nH]c12)CN(c1ncc(C(=O)NO)cn1)CC3 [Example 61, N-hydroxy-2-(8-methyl-1,3,4,9-tetrahydro-2H-b-carbolin-2-yl)pyrimidine-5-carboxamide] | 98.2% | 99.9%
O=C(NO)c1cnc(N2CCc3c([nH]c4cc(F)ccc34)C2)nc1 [Example 62, N-hydroxy-2-(7-fluoro-1,3,4,9-tetrahydro-2H-b-carbolin-2-yl)pyrimidine-5-carboxamide] | 96.2% | 99.9%
O=C(NO)c1cnc(N2CCc3c([nH]c4ccc(F)cc34)C2)nc1 [Example 63, N-hydroxy-2-(6-fluoro-1,3,4,9-tetrahydro-2H-b-carbolin-2-yl)pyrimidine-5-carboxamide] | 98.9% | 99.8%
O=C(NO)c1cnc(N2CCc3c([nH]c4ccc(OCc5ccccc5)cc34)C2)nc1 [Example 64, N-hydroxy-2-(6-benzyloxy-1,3,4,9-tetrahydro-2H-b-carbolin-2-yl)pyrimidine-5-carboxamide] | 98.7% | 99.9%
Cc1ccc2c3c([nH]c2c1)CN(c1ncc(C(=O)NO)cn1)CC3 [Example 65, N-hydroxy-2-(7-methyl-1,3,4,9-tetrahydro-2H-b-carbolin-2-yl)pyrimidine-5-carboxamide] | 98.4% | 99.8%
Cc1ccc2c(c1)C1CCN(c3ncc(C(=O)NO)cn3)CC1N2 (centres unmarked) [Example 67, N-hydroxy-2-(6-methyl-1,3,4,4a,9,9a-hexahydro-2H-b-carbolin-2-yl)pyrimidine-5-carboxamide] | 98.2% | 99.9%
Cc1ccc2[nH]c3c(c2c1)CCN(c1ncc(C(=O)NO)cn1)C3 [Example 68, N-hydroxy-2-(6-methyl-1,3,4,9-tetrahydro-2H-b-carbolin-2-yl)pyrimidine-5-carboxamide] | 98.9% | 99.9%
O=C(NO)c1cnc(N2CCc3c([nH]c4ccc(-c5cccc(CN6CCOCC6)c5)cc34)C2)nc1 [Example 70, N-hydroxy-2-{6-[3-(morpholin-4-ylmethyl)phenyl]-1,3,4,9-tetrahydro-2H-b-carbolin-2-yl}pyrimidine-5-carboxamide] | 97.9% | 99.9%
CN1CCN(Cc2cccc(-c3ccc4[nH]c5c(c4c3)CCN(c3ncc(C(=O)NO)cn3)C5)c2)CC1 [Example 71, N-hydroxy-2-{6-[3-((4-methylpiperazin-1-yl)methyl)phenyl]-1,3,4,9-tetrahydro-2H-b-carbolin-2-yl}pyrimidine-5-carboxamide] | 98.6% | 99.9%
CN1CCN(Cc2ccc(-c3ccc4[nH]c5c(c4c3)CCN(c3ncc(C(=O)NO)cn3)C5)cc2)CC1 [Example 72, N-hydroxy-2-{6-[4-((4-methylpiperazin-1-yl)methyl)phenyl]-1,3,4,9-tetrahydro-2H-b-carbolin-2-yl}pyrimidine-5-carboxamide] | 95.6% | 99.8%
CN1CCN(Cc2ccccc2-c2ccc3[nH]c4c(c3c2)CCN(c2ncc(C(=O)NO)cn2)C4)CC1 [Example 73, N-hydroxy-2-{6-[2-((4-methylpiperazin-1-yl)methyl)phenyl]-1,3,4,9-tetrahydro-2H-b-carbolin-2-yl}pyrimidine-5-carboxamide] | 99.4% | 99.6%
CC(=O)n1c2c(c3cc(C)ccc31)CN(c1ncc(C(=O)NO)cn1)CC2 [Example 74, N-hydroxy-2-{5-acetyl-8-methyl-1,3,4,5-tetrahydro-2H-pyrido[4,3-b]indol-2-yl}pyrimidine-5-carboxamide] | 93.6% | 99.1%
Cc1ccc2c(c1)C1CN(c3ncc(C(=O)NO)cn3)CCC1N2 (centres unmarked) [Example 75, N-hydroxy-2-(8-methyl-1,3,4,4a,5,9b-hexahydro-2H-pyrido[4,3-b]indol-2-yl)pyrimidine-5-carboxamide] | 98.4% | 99.9%
Nc1ccc2[nH]c3c(c2c1)CN(c1ncc(C(=O)NO)cn1)CC3 [Example 76, N-hydroxy-2-(8-amino-1,3,4,5-tetrahydro-2H-pyrido[4,3-b]indol-2-yl)pyrimidine-5-carboxamide] | 98.9% | 100%
CS(=O)(=O)Nc1ccc2[nH]c3c(c2c1)CN(c1ncc(C(=O)NO)cn1)CC3 [Example 78, N-hydroxy-2-(8-(N-methylsulfonamido)-1,3,4,5-tetrahydro-2H-pyrido[4,3-b]indol-2-yl)pyrimidine-5-carboxamide] | 85.1% | 99.9%
